Results as given in paper PMC5564600 (Oncotarget, 2017).
Read-outs that look alike come from different tables or passages of the source.

Columns and labels:
Assay in all cases: biochemical
Format in all cases: binding
panel of 442 kinases [1] = molecular target: T1, panel of 442 kinases (Homo sapiens, UniProt Q13873); settings: BMPR2; for remaining activity at 1 µM: read-out: % of control at 1 µM
T1 construct: purchased Ambit Biosciences (scanMAXX KINOMEscan)
T1 sequence (Q13873 27-1038): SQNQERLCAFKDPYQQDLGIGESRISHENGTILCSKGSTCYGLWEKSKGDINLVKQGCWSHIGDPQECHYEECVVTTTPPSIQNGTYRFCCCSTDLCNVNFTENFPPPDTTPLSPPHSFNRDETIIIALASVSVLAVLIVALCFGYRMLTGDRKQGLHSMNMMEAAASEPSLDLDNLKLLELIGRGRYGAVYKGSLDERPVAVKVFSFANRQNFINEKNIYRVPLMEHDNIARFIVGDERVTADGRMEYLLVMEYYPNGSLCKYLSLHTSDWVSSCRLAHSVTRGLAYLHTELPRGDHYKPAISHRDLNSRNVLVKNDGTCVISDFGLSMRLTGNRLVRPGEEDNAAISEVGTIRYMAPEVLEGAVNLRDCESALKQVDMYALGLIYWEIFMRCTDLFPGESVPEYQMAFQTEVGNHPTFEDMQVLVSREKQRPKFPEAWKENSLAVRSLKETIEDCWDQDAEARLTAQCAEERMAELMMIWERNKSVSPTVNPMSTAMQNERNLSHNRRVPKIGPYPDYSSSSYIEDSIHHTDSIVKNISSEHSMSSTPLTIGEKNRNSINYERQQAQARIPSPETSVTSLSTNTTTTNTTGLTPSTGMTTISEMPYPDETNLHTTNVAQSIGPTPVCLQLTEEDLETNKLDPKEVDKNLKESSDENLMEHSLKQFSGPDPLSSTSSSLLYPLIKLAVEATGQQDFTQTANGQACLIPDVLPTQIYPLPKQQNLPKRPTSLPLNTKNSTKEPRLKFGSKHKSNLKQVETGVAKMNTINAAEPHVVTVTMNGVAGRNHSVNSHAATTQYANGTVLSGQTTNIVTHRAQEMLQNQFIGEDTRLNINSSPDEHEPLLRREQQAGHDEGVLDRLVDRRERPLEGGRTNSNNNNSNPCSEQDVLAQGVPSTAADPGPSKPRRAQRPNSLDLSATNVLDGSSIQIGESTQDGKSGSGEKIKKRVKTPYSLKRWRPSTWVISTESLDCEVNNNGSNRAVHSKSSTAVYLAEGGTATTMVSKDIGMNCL

panel of 442 kinases [2] = molecular target: T2, panel of 442 kinases (Homo sapiens, UniProt Q9Y6R4); settings: kinase MAP3K4; for remaining activity at 1 µM: read-out: % of control at 1 µM
T2 construct: purchased Ambit Biosciences (scanMAXX KINOMEscan)

panel of 442 kinases [3] = molecular target: T3, panel of 442 kinases (Homo sapiens, UniProt Q00526); settings: CDK3; for remaining activity at 1 µM: read-out: % of control at 1 µM
T3 construct: purchased Ambit Biosciences (scanMAXX KINOMEscan)

panel of 442 kinases [4] = molecular target: T4, panel of 442 kinases (Homo sapiens, UniProt O43283); settings: kinase LZK; for remaining activity at 1 µM: read-out: % of control at 1 µM
T4 construct: purchased Ambit Biosciences (scanMAXX KINOMEscan)
T4 sequence (O43283 1-966): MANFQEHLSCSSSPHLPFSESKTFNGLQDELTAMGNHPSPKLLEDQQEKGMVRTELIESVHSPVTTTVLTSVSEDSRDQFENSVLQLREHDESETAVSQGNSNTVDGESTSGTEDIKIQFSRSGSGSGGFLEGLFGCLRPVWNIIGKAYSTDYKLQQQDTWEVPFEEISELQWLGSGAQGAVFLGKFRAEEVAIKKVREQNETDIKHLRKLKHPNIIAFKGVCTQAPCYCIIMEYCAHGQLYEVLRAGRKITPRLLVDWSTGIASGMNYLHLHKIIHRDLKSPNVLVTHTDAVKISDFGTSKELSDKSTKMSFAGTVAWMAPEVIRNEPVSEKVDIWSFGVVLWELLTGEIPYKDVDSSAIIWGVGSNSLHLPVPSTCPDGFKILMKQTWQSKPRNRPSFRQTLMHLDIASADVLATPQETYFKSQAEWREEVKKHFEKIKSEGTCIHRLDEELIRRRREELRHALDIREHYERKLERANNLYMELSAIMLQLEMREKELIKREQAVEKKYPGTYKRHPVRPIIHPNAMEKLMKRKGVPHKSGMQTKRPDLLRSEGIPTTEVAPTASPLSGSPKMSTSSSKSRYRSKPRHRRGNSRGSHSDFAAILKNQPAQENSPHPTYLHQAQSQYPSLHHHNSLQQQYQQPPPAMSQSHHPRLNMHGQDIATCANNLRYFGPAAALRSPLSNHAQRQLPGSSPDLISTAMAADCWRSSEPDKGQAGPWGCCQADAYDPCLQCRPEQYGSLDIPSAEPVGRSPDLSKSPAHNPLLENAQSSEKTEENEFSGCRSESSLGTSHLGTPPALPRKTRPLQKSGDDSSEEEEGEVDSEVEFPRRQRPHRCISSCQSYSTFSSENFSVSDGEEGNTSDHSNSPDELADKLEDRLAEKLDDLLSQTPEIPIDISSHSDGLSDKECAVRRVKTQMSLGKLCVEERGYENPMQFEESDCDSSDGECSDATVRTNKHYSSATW

panel of 442 kinases [5] = molecular target: T5, panel of 442 kinases (Homo sapiens, UniProt Q15349)
T5 construct: purchased Ambit Biosciences (scanMAXX KINOMEscan)

panel of 442 kinases [6] = molecular target: T6, panel of 442 kinases (Homo sapiens, UniProt P49841); settings: kinase GSK3B; for remaining activity at 1 µM: read-out: % of control at 1 µM
T6 construct: purchased Ambit Biosciences (scanMAXX KINOMEscan)

[7] = 10 µM, read-out: % of control at 10 µM
[8] = kinase RSK3(Kin.Dom.1-N-terminal), read-out: RSK3(Kin.Dom.1-N-terminal) (% of control at 1 µM)
[9] = kinase RSK3(Kin.Dom.2-C-terminal), read-out: RSK3(Kin.Dom.2-C-terminal) (% of control at 1 µM)

T5 sequence (Q15349 whole entry): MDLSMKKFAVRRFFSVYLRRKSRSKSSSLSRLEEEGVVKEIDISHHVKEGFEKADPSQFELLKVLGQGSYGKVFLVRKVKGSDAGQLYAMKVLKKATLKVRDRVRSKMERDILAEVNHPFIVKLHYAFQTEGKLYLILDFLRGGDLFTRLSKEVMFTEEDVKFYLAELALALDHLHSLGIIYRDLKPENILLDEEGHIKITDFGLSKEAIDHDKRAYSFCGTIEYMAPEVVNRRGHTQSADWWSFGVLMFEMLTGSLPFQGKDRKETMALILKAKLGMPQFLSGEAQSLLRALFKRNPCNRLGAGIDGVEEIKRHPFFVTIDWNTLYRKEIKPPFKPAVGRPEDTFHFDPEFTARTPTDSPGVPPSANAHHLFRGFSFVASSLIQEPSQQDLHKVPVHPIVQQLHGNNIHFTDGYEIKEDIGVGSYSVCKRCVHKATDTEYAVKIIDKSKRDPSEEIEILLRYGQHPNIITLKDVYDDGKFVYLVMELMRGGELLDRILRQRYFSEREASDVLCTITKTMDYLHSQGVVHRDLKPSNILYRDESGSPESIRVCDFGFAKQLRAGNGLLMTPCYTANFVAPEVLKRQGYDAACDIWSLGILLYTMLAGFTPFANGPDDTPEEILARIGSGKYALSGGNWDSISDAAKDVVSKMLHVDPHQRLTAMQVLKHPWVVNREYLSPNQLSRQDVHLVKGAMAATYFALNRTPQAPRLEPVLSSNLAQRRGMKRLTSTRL
T6 sequence (P49841 whole entry): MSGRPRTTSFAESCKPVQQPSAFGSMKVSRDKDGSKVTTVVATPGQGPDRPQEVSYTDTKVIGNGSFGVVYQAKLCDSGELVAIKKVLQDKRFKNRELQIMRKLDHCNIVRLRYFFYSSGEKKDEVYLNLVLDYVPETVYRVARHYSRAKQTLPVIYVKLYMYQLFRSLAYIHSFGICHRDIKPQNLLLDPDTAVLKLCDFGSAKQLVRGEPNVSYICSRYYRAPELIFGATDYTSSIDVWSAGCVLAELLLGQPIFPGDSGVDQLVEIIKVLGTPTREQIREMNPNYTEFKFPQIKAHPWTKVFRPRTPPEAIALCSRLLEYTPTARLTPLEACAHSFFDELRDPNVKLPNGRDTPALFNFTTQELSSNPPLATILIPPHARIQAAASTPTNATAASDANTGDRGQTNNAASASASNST
T2 sequence (Q9Y6R4 whole entry): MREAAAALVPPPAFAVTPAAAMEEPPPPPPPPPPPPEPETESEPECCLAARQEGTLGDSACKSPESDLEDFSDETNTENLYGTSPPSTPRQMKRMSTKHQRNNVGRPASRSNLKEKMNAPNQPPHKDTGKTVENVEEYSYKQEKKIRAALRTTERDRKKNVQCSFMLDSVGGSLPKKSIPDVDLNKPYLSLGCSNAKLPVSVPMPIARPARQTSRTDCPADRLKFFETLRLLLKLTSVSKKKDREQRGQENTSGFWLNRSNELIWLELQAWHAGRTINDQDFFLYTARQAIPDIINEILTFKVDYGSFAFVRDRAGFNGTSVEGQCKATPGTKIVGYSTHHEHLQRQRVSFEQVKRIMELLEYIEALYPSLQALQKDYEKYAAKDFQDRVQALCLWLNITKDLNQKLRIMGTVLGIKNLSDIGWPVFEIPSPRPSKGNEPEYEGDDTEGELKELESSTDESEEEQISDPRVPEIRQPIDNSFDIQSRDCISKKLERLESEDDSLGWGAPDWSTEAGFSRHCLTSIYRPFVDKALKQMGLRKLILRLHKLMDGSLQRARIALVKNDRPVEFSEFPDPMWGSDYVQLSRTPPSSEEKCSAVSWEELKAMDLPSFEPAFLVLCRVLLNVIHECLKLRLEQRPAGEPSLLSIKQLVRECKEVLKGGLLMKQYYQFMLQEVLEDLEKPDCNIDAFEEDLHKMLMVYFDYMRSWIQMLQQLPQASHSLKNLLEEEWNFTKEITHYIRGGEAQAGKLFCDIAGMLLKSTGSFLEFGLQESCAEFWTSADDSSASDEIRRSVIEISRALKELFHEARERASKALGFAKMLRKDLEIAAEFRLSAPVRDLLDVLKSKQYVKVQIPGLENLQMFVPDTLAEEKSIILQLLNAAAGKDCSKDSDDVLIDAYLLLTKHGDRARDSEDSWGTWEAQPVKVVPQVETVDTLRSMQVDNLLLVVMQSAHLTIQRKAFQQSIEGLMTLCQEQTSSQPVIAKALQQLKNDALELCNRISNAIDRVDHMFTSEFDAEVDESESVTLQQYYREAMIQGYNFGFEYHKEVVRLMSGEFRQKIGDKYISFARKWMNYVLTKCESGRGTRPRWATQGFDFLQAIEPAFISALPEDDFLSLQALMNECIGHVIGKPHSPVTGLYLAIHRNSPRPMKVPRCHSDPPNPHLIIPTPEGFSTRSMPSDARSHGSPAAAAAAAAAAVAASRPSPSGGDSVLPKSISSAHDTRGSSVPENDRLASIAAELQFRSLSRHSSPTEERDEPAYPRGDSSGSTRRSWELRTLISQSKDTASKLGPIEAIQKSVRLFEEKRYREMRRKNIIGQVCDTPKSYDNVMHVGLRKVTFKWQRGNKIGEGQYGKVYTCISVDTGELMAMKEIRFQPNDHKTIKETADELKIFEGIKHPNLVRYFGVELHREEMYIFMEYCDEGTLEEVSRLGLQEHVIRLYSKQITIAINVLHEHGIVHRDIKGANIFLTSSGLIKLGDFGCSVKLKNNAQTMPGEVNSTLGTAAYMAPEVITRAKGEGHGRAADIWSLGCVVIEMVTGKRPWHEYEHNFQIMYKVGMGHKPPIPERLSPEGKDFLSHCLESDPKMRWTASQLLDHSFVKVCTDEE
T3 sequence (Q00526 whole entry): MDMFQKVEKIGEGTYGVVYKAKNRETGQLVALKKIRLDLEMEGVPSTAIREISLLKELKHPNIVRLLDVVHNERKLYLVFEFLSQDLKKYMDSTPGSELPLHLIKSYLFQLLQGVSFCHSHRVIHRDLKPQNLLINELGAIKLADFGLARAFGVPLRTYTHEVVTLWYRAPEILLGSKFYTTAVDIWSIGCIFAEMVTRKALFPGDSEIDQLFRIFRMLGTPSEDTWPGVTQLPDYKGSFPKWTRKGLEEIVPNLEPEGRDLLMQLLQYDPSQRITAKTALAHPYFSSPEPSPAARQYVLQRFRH

Compound | remaining activity at 1 µM (panel of 442 kinases [1]) | remaining activity at 10 µM (panel of 442 kinases [1]; [7]) | remaining activity at 1 µM (panel of 442 kinases [2]) | remaining activity at 10 µM (panel of 442 kinases [2]; [7]) | remaining activity at 1 µM (panel of 442 kinases [3]) | remaining activity at 10 µM (panel of 442 kinases [3]; [7]) | remaining activity at 1 µM (panel of 442 kinases [4]) | remaining activity at 10 µM (panel of 442 kinases [4]; [7]) | remaining activity at 1 µM (panel of 442 kinases [5]; [8]) | remaining activity at 10 µM (panel of 442 kinases [5]; kinase RSK3(Kin.Dom.1-N-terminal), read-out: RSK3(Kin.Dom.1-N-terminal) (% of control at 10 µM)) | remaining activity at 1 µM (panel of 442 kinases [5]; [9]) | remaining activity at 10 µM (panel of 442 kinases [5]; kinase RSK3(Kin.Dom.2-C-terminal), read-out: RSK3(Kin.Dom.2-C-terminal) (% of control at 10 µM)) | remaining activity at 1 µM (panel of 442 kinases [6]) | remaining activity at 10 µM (panel of 442 kinases [6]; [7])
Nc1cc(C(F)(F)F)c(-c2cc(N3CCOCC3)nc(N3CCOCC3)n2)cn1 [Buparlisib] | 86% | 88% | 92% | 100% | 100% | 100% | 81% | 98% | 95% | 100% | 100% | 100% | 86% | 100%
Cn1c(=O)n(-c2ccc(C(C)(C)C#N)cc2)c2c3cc(-c4cnc5ccccc5c4)ccc3ncc21 [Dactolisib, 2-methyl-2-[4-(3-methyl-2-oxo-8-quinolin-3-yl-2,3-dihydroimidazo[4,5-c]quinolin-1-yl)-phenyl] propionitrile] | 83% | – | 96% | – | 100% | – | 100% | – | 70% | – | 75% | – | 100% | –
COc1ncc(-c2ccc3nccc(-c4ccnnc4)c3c2)cc1NS(=O)(=O)c1ccc(F)cc1F [Omipalisib] | 100% | – | 100% | – | 82% | – | 100% | – | 100% | – | 100% | – | 89% | –
FC(F)c1nc2ccccc2n1-c1nc(N2CCOCC2)nc(N2CCOCC2)n1 [ZSTK474, 2-(difluoromethyl)-1-[4,6-di(4-morpholinyl)-1,3,5-triazin-2-yl]-1H-benzimidazole] | 100% | – | 97% | – | 100% | – | 100% | – | 100% | – | 100% | – | 91% | –
